# Entries after “also recorded” stand apart in the source; their conditions may differ.
# Assays:
# [1] = system: differentiated CD56+ NK cells; assay: Flow cytometry of NK cell, maturity and T cell markers on differentiated CD56+ NK cells at day 28; type: cell-based, Human
# Description: CD56^+ NK cells were differentiated as described in Examples 1 and 2 in the presence of 1 μM UM729 and analyzed on day 28 by flow cytometry for the expression of known NK cell markers. Cells were stained with fluorescence-conjugated antibodies against indicated NK cell markers for 15 min at 4° C. Non-specific binding was blocked using FcR blocker and 5% human or rat serum. Dead cells were excluded by light scatter profile and 7-AAD or DRAQ7 staining. Prepared samples were analyzed by flow cytometry.
# CD56^+ NK cells were differentiated as described in Examples 1 and 2 in the presence of 1 μM UM729 and analyzed on day 28 by flow cytometry for the expression of known NK cell markers. The cells were stained for the markers described in this Example essentially as described in Example 3. Staining for KIR molecules was performed using a combination of two clones for the antibody, 180704 and HP-MA4, as each recognizes a distinct subset of KIR molecules. Dead cells were excluded by light scatter profile and 7-AAD or DRAQ7 staining.
# Production of IFNγ by the differentiated CD56^+ NK cells was also measured. For IFNγ intracellular staining, differentiated CD56^+ NK Cells were stimulated with PMA/Ionomycin for 2 hours. Brefeldin A was added and the cells were incubated for another 2 hours. The cells were harvested and stained for CD56 and Zombie NIR viability dye then fixed, permeabilized and stained for intracellular IFNγ.
# CD56^+ NK cells were differentiated as described in Examples 1 and 2 in the presence of pyrimidoindole compounds and analyzed on day 28 by flow cytometry for the expression of a T cell marker. The analyzed cells were stained for CD3 essentially as described in Example 3. Dead cells were excluded by light scatter profile and 7-AAD or DRAQ7 staining.
# K562 target cells = assay: Calcein AM release cytotoxicity assay of differentiated CD56+ NK cells; type: cell-based; settings: cells differentiated in the presence of 1 μM UM729, day 28; effector to target ratio 5:1, 4 hours
# Description: CD56^+ NK cells were differentiated as described in Examples 1 and 2 in the presence of 1 μM UM729 and analyzed on day 28 for their cytotoxicity toward K562 target cells.
# For the cytotoxicity assay, the in vitro generated CD56^+ NK cells were co-cultured with Calcein AM labeled K562 cells for 4 hours at a ratio of 5:1 for effector cells (NK cells) to target cells (K562 cells), and supernatants were analysed for the release of fluorescent Calcein from killed target cells.
# Peripheral blood (PB) NK cells and Monocytes isolated using EasySep™ (STEMCELL Technologies, Catalogue #17955 and 19359, respectively) were also co-cultured with labelled K562 cells as positive and negative controls, respectively, at the same ratios described above.
# To detect spontaneous release of calcein, control wells containing only calcein AM-labeled K562 target cells were set up. The labeled K562 cells were treated with 1% Triton™ X-100 to measure maximum release. After incubation, plates were centrifuged at 500×g for 5 minutes and 100 μL of supernatant was transferred to black plates and analyzed using a SpectraMax® microplate reader (excitation 485 nm/emission 530 nm). Results are expressed as % specific lysis: [(test release−spontaneous release)×100]/(maximum release−spontaneous release).
# [2] = system: sorted day 14 populations of NK cell progenitors; assay: Differentiation of sorted day 14 NK cell progenitor subsets to CD56+ NK cells, cultured another 14 days; type: cell-based, Human
# Excerpt: CD34^+ CB cells were isolated and cultured as described in Example 1 up to the day 14 time point. NK cell progenitors derived from CB CD34^+ HSPCs after 14 days of culture were stained, essentially as described in Example 3, with antibodies against markers CD5, CD7, and CD56. CD56^− cells were gated and CD7^+CD5^−, CD7^+CD5^+, CD5^−CD7^− cells were sorted using a BD FACSAria Fusion fluorescence-activated cell sorter. To investigate which subset of the day 14 population of NK cell progenitors is targeted by pyrimidoindole compounds, the CD7^+CD5^−, CD7^+CD5^+ and CD7^−CD5^− sorted populations were each cultured for another 14 days in NK Cell Differentiation medium without or with UM729. CD34^+ CB cells were isolated and cultured as described in Example 1 up to the day 14 time point. NK cell progenitors derived from CB CD34^+ HSPCs after 14 days of culture were stained, essentially as described in Example 3, with antibodies against markers CD5, CD7, CD34, and CD56. CD56^− cells were gated and […], and CD34^− CD7^+CD5^− and CD34^−CD7^+CD5^+ were sorted using a BD FACSAria Fusion fluorescence-activated cell sorter. CD7 cells were sorted as a negative control. To investigate which subset of the day 14 population of NK cell progenitors is targeted by pyrimidoindole compounds, the CD34^+CD7^+CD5^− and CD34^+CD7^+CD5^+, and CD34^−CD7^+CD5^− and CD34^− CD7^+CD5^+ sorted populations were each cultured for another 14 days in NK Cell Differentiation medium with or without UM729.
# PSC-derived CD34+ cells = assay: Differentiation of PSC-derived CD34+ cells into CD5+CD7+ NK cell progenitors; type: cell-based, Human; settings: 1 μM UM729 during days 10 to 24; PSC lines 1C, M001, H1, F016
# Description: PSC-derived […] cells were generated as described in Example 11. The PSC-derived […] cells were cultured as described in Example 11, except the effect of the presence or absence of 1 μM UM729 on the differentiation of a population of NK cell progenitors was assessed. The cells were stained for CD5 and CD7 essentially as described in Example 3 and analyzed for frequency of CD5^+CD7^+ cells and yield of CD5^+CD7^+ cells per 5×10^4 input PSC-derived […] cells. Both the frequency (FIG. 15A) and yield (FIG. 15B) of CD5^+CD7^+ cells decreased after culturing the PSC-derived […] cells in the presence of UM729, as compared to culturing such cells in the absence of UM729. Therefore, the presence of UM729 during days 10 to 24 of culturing PSC-derived […] cells decreases the frequency and yield of CD5^+CD7^+ NK progenitor cells.
# [3] = cells differentiated in the presence of 1 μM UM729, day 28
# [4] = sorted CD7+CD5+ cells, 14 days with UM729, three donors
# [5] = sorted CD7+CD5− cells, 14 days with UM729, three donors
# [6] = sorted CD34−CD7+CD5+ cells, 14 days with UM729
# [7] = sorted CD34−CD7+CD5− cells, 14 days with UM729
compound,measurement,setting,value
"COC(=O)c1ccc2c(c1)[nH]c1ncnc(NCCCN3CCCCC3)c12 [UM729, methyl 4-((3-(piperidin-1-yl)propyl)amino)-9H-pyrimido[4,5-b]indole-7-carboxylate]",Analyzed cells co-expressing CD56 and CD16,[1]; [3],approximately 17%
same,Analyzed cells co-expressing CD56 and CD94,[1]; [3],approximately 18%
same,Analyzed cells co-expressing CD56 and KIR,[1]; [3],approximately 10%
same,Analyzed cells co-expressing CD56 and NKG2D,[1]; [3],approximately 50%
same,Analyzed cells co-expressing CD56 and NKp30,[1]; [3],approximately 80%
same,Analyzed cells co-expressing CD56 and NKp44,[1]; [3],approximately 80%
same,Analyzed cells co-expressing CD56 and NKp46,[1]; [3],approximately 70%
same,Differentiated CD56+ NK cells expressing intracellular IFNγ upon stimulation,"[1]; cells differentiated in the presence of 1 μM UM729, PMA/Ionomycin 2 hours, then Brefeldin A 2 hours",approximately 58%
same,Expression of CD3 among differentiated cells,"[1]; cord blood sample of a second donor, 1 μM UM729, day 28",virtually absent; also recorded: do not express CD3
same,Cytotoxicity (killing ability) of differentiated NK cells toward K562 target cells,K562 target cells,able to kill K562 target cells
same,Frequency of NK cells compared to culture conditions lacking UM729,[2]; [4],higher
same,Yield of NK cells compared to culture conditions lacking UM729,[2]; [4],higher
same,Frequency of NK cells compared to culture conditions lacking UM729,[2]; [5],higher
same,Yield of NK cells compared to culture conditions lacking UM729,[2]; [5],higher
same,Expansion and differentiation to NK cells,"[2]; sorted CD7−CD5− cells, presence or absence of UM729",did not expand and differentiate to NK cells
same,Responsiveness of CD34+ NK progenitor cell subsets to UM729,"[2]; sorted CD34+CD7+CD5− and CD34+CD7+CD5+ cells, 14 days with UM729",do not appear responsive
same,Frequency of NK cells compared to culture conditions lacking UM729,[2]; [6],higher
same,Yield of NK cells compared to culture conditions lacking UM729,[2]; [6],higher
same,Frequency of NK cells compared to culture conditions lacking UM729,[2]; [7],higher
same,Yield of NK cells compared to culture conditions lacking UM729,[2]; [7],higher
same,Frequency of CD5+CD7+ cells compared to absence of UM729,PSC-derived CD34+ cells,decreased
same,Yield of CD5+CD7+ cells per 5×10^4 input PSC-derived cells compared to absence of UM729,PSC-derived CD34+ cells,decreased

# Source: patent US12723233B2, “Media and methods for differentiating natural killer cells” (STEMCELL Technologies Canada Inc., priority 2018, dated 2026)
